81 sequences from the OligoGym collection can be followed below.

For the data set, the target named is HSD17B13. To be noted: ASO, HepaRG.

After the bases stand the sugars from the 5' end (letter, count) and the backbone: PS all phosphorothioate, else s phosphorothioate and o phosphodiester by linkage. Methylation of C is not given here. e = 2'-O-(2-methoxyethyl) (MOE); k = constrained ethyl (cEt); d = 2'-deoxy (DNA); m = 2'-O-methyl

For TCTTGGGTCCATTGTT (sugars k3 d10 k3, PS), the target mRNA inhibition (1 µM) is 60%.
The sequence TTAAAGACAGGGTGGT (sugars k3 d10 k3, PS) showed a target mRNA inhibition (1 µM) of 21%.
Turning to CAGGCTGTAAGAGTCA (sugars k3 d10 k3, PS), the target mRNA inhibition (1 µM) turned out to be 56%.
The sequence AAGAGCTGGTAAAGGT (sugars k3 d10 k3, PS) showed a target mRNA inhibition (1 µM) of 47%.
The same measure, in the same setting: the result for “ACACUAATATTGAGGC (sugars k3 d1 m1 d8 k3, PS)” reads 43%; that for GATGTAGTGGGAGTCG (sugars k3 d10 k3, PS), 67%.
Same read-out and setting: the result for “AATTGATACACCAATG (sugars kkdddddddddkekek, PS)” reads 50%.
On the same count and under the same terms, the result for TTTTTATTGGGCCCAA (sugars k3 d10 k3, PS) reads 51%; that for TAGCTAAGGGAGAGTG (sugars k3 d10 k3, PS), 9%; that for CTGTAATTGGCTCTTG (sugars k3 d10 k3, PS), 28%.
CTTAAGGATCATTGCA (sugars k3 d10 k3, PS) had a target mRNA inhibition (1 µM) of 29%.
“GCATCTTAAGATACCC (sugars kkdddddddddkekek, PS)”: the target mRNA inhibition (1 µM) was found to be 41%.
On the same count and under the same terms, the result for GTAACTGTATTAAGAC (sugars k3 d10 k3, PS) reads 54%; that for “TCCAUAATAATAGCTC (sugars k3 d1 m1 d8 k3, PS)”, 58%; that for AATCGCTGCTTAGTTC (sugars k3 d10 k3, PS), 41%.
CAGATTATTATGTGAT (sugars k3 d10 k3, PS) came in with a target mRNA inhibition (1 µM) of 51%.
ACTCTATTGATTGGCT (sugars k3 d10 k3, PS): the target mRNA inhibition (1 µM) was 57%.
Regarding CTACTTGAACAGTCTT (sugars k3 d10 k3, PS), the target mRNA inhibition came out at 8% (0.02 µM); 23% (0.078 µM); 49% (0.313 µM); 80% (1 µM); 79% (1.25 µM); 97% (5 µM).
In the case of AATCAATCTGTCTGAA (sugars k3 d10 k3, PS), the target mRNA inhibition (1 µM) was determined as 34%.
ACTAGAACTCCCAACC (sugars k3 d10 k3, PS): the target mRNA inhibition (1 µM) came to 20%.
On the same count and under the same terms, to “CATCTCTGGGACCAAG (sugars kkdddddddddkekek, PS)” belongs 44%.
Same read-out and setting: the result for AGGCTGTAAGAGTCAG (sugars k3 d10 k3, PS) reads 74%; that for ACTCCGTTATAAGTTT (sugars k3 d10 k3, PS), 42%.
Take “CTGAAATTGATACACC (sugars k3 d9 k3 e1, PS)”: the target mRNA inhibition is, setting by setting: (0.02 µM) 0%; (0.078 µM) 17%; (0.313 µM) 51%; (1 µM) 75%; (1.25 µM) 61%; (5 µM) 81%.
Sequence CTAGTAATTGCATCTG (sugars k3 d10 k3, PS) had a target mRNA inhibition (1 µM) of 57%.
In turn, CGCACACTGAAGCCAC (sugars k3 d10 k3, PS) returned a target mRNA inhibition (1 µM) of 56%.
The same measure, in the same setting: to TCAAATTAAGATGTCC (sugars k3 d10 k3, PS) belongs 6%; to “TGGAATGCTACTTGAA (sugars kkdddddddddkekek, PS)”, 68%; to CATATTCCCTGATGAT (sugars k3 d10 k3, PS), 14%.
The same measure, in the same setting: the result for ACTGTATTAAGACAGT (sugars k3 d10 k3, PS) reads 20%.
The same measure, in the same setting: the result for ATAAGTAGATGGTAAG (sugars k3 d10 k3, PS) reads 58%.
The sequence AGACTAAGGGACCAGG (sugars k3 d10 k3, PS) yielded a target mRNA inhibition (0.02 µM) of 22%; a target mRNA inhibition (0.078 µM) of 24%; a target mRNA inhibition (0.313 µM) of 56%; a target mRNA inhibition (1 µM) of 80%; a target mRNA inhibition (1.25 µM) of 90%; a target mRNA inhibition (5 µM) of 94%.
The sequence “TGCTGCTAGTGCCAAA (sugars k3 d1 m1 d8 k3, PS)” displayed a target mRNA inhibition (1 µM) of 50%.
Same read-out and setting: the result for ATCCTTGGTGCTGAGA (sugars k3 d10 k3, PS) reads 13%; that for “TTCTGTGGCATGGCTA (sugars k3 d9 k3 e1, PS)”, 59%; that for “AAATATGTCCAGGTTG (sugars k3 d1 m1 d8 k3, PS)”, 63%.
Still for that read-out and setting: to GATAGAGCACATGGCC (sugars k3 d10 k3, PS) belongs 20%; to AAAAGACTTTGAGACT (sugars k3 d10 k3, PS), 32%; to AGAACCAGGACTCTCC (sugars k3 d10 k3, PS), 67%.
On the same count and under the same terms, the result for TCGGCACTCAGCTGCA (sugars k3 d10 k3, PS) reads 52%; that for GTACAGTAGGCAGTTT (sugars k3 d10 k3, PS), 50%.
Under “1 µM”, “ACTTGATCTCTTAGCT (sugars k3 d9 k3 e1, PS)” yielded a target mRNA inhibition of 59%.
As to “ATGTGAAGAGCTGGTA (sugars kkdddddddddkekek, PS)”, where the note is “1 µM”, the target mRNA inhibition is 54%.
The same measure, in the same setting: to GATCTAGAACACTTGC (sugars k3 d10 k3, PS) belongs 27%.
Same read-out and setting: the result for CTTCTTACGACTTCAT (sugars k3 d10 k3, PS) reads 45%; that for “TGTCCACCTTTAAATG (sugars kkdddddddddkekek, PS)”, 27%; that for GAGGGTCCACTTTTGG (sugars k3 d10 k3, PS), 23%.
On the same count and under the same terms, the result for TAGAGTCGGTCACCTT (sugars k3 d10 k3, PS) reads 65%; that for “CCATCTATCAGACTTC (sugars kkdddddddddkekek, PS)”, 52%.
For “ATACATTAGCAAGCTA (sugars kkdddddddddkekek, PS)”, the target mRNA inhibition (1 µM) was found to be 22%.
Where the note is “1 µM”, AGTATGTTTATGTAAG (sugars k3 d10 k3, PS) showed a target mRNA inhibition of 48%.
Same read-out and setting: the result for “AGAGGCTAGGGAAATC (sugars kkdddddddddkekek, PS)” reads 59%; that for CTAGATACTCAATTTA (sugars k3 d10 k3, PS), 30%.
For the sequence TCAACTAAACATGACA (sugars k3 d10 k3, PS), the target mRNA inhibition stood at 0% (0.02 µM); 0% (0.078 µM); 42% (0.313 µM); 77% (1 µM); 69% (1.25 µM); 89% (5 µM).
In the case of TGGCCGCACACTGAAG (sugars k3 d10 k3, PS), the target mRNA inhibition (1 µM) came out at 0%.
For “ATGTTTATGTAAGCAC (sugars k3 d9 k3 e1, PS)”, the target mRNA inhibition reads like this: (0.02 µM) 6%; (0.078 µM) 0%; (0.313 µM) 39%; (1 µM) 73%; (1.25 µM) 66%; (5 µM) 70%.
On to GGGAAAGAAGTCTCCT (sugars k3 d10 k3, PS), for which, for the setting “1 µM”, the target mRNA inhibition was 13%.
Take AGATGGGCAAGGCCAC (sugars k3 d10 k3, PS): the target mRNA inhibition (1 µM) amounted to 59%.
Take “TTGAACAGTCTTAAAC (sugars k3 d1 m1 d8 k3, PS)”: the target mRNA inhibition (1 µM) was determined as 11%.
For the setting “1 µM”, TCCAAGGAGTGCATCT (sugars k3 d10 k3, PS) had a target mRNA inhibition of 46%.
On the same count and under the same terms, to TTGAGAGAACTTATAC (sugars k3 d10 k3, PS) belongs 21%; to AAAATGGTGGCGAGGC (sugars k3 d10 k3, PS), 0%.
The same measure, in the same setting: the result for ATAACTACATGACCTG (sugars k3 d10 k3, PS) reads 29%.
In turn, AAACTAGGAAGTGATC (sugars k3 d10 k3, PS) yielded a target mRNA inhibition (1 µM) of 39%.
On the same count and under the same terms, the result for ATAATAGCTCTATTGG (sugars k3 d10 k3, PS) reads 46%.
Same read-out and setting: to “TCTAAACATCTCTGGG (sugars kkdddddddddkekek, PS)” belongs 21%; to TGAATAGCAAGCCAAC (sugars k3 d10 k3, PS), 4%.
TATTCTGTGGCATGGC (sugars k3 d10 k3, PS): the target mRNA inhibition (1 µM) amounted to 71%.
Same read-out and setting: to TAGGATGTTGACCTCA (sugars k3 d10 k3, PS) belongs 19%.
Same read-out and setting: to ATCTATCATGCCTTCC (sugars k3 d10 k3, PS) belongs 6%; to “ATTCTGTGGCATGGCT (sugars kkdddddddddkekek, PS)”, 55%.
For ACTTTCATAGGGAGAC (sugars k3 d10 k3, PS), the target mRNA inhibition by setting is: (0.02 µM) 0%; (0.078 µM) 8%; (0.313 µM) 25%; (1 µM) 80%; (1.25 µM) 69%; (5 µM) 83%.
“TTGAGATAAAGCTGCC (sugars kkdddddddddkekek, PS)” came in with a target mRNA inhibition (1 µM) of 2%.
Same read-out and setting: to GAGTTATTGTAGGGAT (sugars k3 d10 k3, PS) belongs 69%; to TCAGATCCCGTTCTTG (sugars k3 d10 k3, PS), 59%.
The same measure, in the same setting: the result for TTTAGAATACGCTGAG (sugars k3 d10 k3, PS) reads 44%; that for “GATGCTCCATAATAAT (sugars k3 d9 k3 e1, PS)”, 15%.
Still for that read-out and setting: to AAACTTGATCTCTTAG (sugars k3 d10 k3, PS) belongs 61%; to TGTCAGAGACTCTGTG (sugars k3 d10 k3, PS), 39%.
In the case of GTAATCAGTTTTCCTC (sugars k3 d10 k3, PS), the target mRNA inhibition (0.02 µM) stood at 0%; the target mRNA inhibition (0.078 µM) is 0%; the target mRNA inhibition (0.313 µM) was 11%; the target mRNA inhibition (1 µM) amounted to 79%; the target mRNA inhibition (1.25 µM) was found to be 36%; the target mRNA inhibition (5 µM) was found to be 73%.
Regarding AGTCCAGAATAGAGTT (sugars k3 d10 k3, PS), the target mRNA inhibition (1 µM) was 58%.
